Series [1] addresses T1, Human Ghrelin Receptor (GHS-R 1A) (Homo sapiens (Human), UniProt Q92847). Put plainly: Calcium release, antagonist. In kind it is cell-based. The following applies: 15 minutes preincubation, then ghrelin. An excerpt: (§1) Mouse LTK-cells (ATCC CCL-1.3) were stably transfected with a plasmid containing the CMV minimal promoter (CMVmin) linked to three cAMP response elements (CRE) followed by a luciferase reporter gene. Based on this parental cell line, single cell clones stably overexpressing the human, rat or mouse GHS-R 1A have been established and characterized with respect to suitability for the different assay formats.
(§2) For determination of calcium release the respective cell line was loaded with Fluo-4 NW Calcium Assay Kit (Moleculare Probes/Invitrogen # F10741) for 80 min @ 37° C. After 15 minutes of preincubation with different concentrations of the test compounds ghrelin was added and the signal was monitored for 60 seconds by a FlexStation3 microplate reader (Molecular Devices).
(§3) IC50 values were determined by using the GraphPad Prism analysis program (GraphPad Software).
(§4) Values given are either single measurements or mean values of up to nine independent experiments performed in duplicate (binding) or quadruplicate (functional assays) measurements.

The target of series [2] is T1, Human Ghrelin Receptor (GHS-R 1A). Put plainly: CRE/Luc reporter gene assay, antagonist. The format is cell-based. The following applies: 6 h, 1 μM rolipram.
From the text: as §1
For the CRE/Luc reporter gene assay, the mouse LTK-cells stably expressing the human GHS-1RA and a luciferase reporter gene under the control of CRE elements and the CMV minimal promoter were incubated for 6 h with 1 μM rolipram in the presence of different concentrations of AEZS-130. Subsequently, cells were lysed and ATP bioluminescence was measured in the luminescence mode on FlexStation3 (Molecular Devices).
as §3, §4
A general note: In a reporter assay the amount or activity of a reporter protein is the signal.

Series [3] addresses hERG channel (Homo sapiens (Human), UniProt Q12809). As to the kind of experiment: Predictor hERG Fluorescence Polarization Assay. In kind it is binding. An excerpt: The Predictor™ hERG Fluorescence Polarization Assay (Invitrogen, Karlsruhe, GER) determines whether test compounds block the hERG channel [Piper, D. R. et al., Assay Drug Dev Technol. 2008, 6(2):213-23]. The assay uses a membrane fraction containing hERG channel protein (Predictor™ hERG Membrane) and a high-affinity red fluorescent hERG channel ligand, or “tracer” (Predictor™ hERG Tracer Red), in a homogenous, fluorescence polarization (FP)-based format. Compounds that bind to the hERG channel protein (competitors) are identified by their ability to displace the tracer, resulting in a lower fluorescence polarization. The assay was performed according to guidelines of the manufacturer

Series [4] concerns the target CYP3A4 (Homo sapiens (Human), UniProt P08684). As to the kind of experiment: CYP3A4 inhibition in human liver microsomes, direct and metabolism-dependent. In kind it is in vitro ADME. The procedure:
Direct and metabolism-dependent inhibition of CYP enzymes are assessed with specific marker substrates by a HPLC-based UV detection method in human liver microsomes. Incubations are carried out as doublets with final concentrations ranging from 0.01 to 200 μM (30 min, 37° C.). Metabolism-dependent inhibition was assessed by incubation for 30 minutes in the presence of NADPH prior to the addition of marker substrate to allow the generation of metabolites. Percent inhibition is plotted against concentration to calculate or extrapolate IC50 values from the sigmoid curve.
(Liver microsomes are a subcellular fraction often used to study metabolism.)

Series [5] is described as follows: CaCo-2 permeability assay. In kind it is in vitro ADME. The following applies: human; for Papp A→B at 2 h: a to b, read-out: CaCo-2 Assay Papp ab; for Papp A→B at 2 h / Papp B→A at 2 h: 3 or 5 μM, 2 hours at 37° C.; for Papp B→A at 2 h: b to a, read-out: CaCo-2 Assay Papp ba; for efflux ratio at 2 h: read-out: CaCo-2 Assay ba/ab. As to the method:
For the CaCo-2 permeability assay 80.000 CaCo-2 cells (ATCC HTB-37) were seeded in DMEM supplemented with 10% FCS, 1% Penicillin/Streptomycin and 1% non-essential amino acids per 24 well transwell plate (Corning 3397) and were grown for 21 days by changing the media every second day. On day 21 the medium was replaced by HBSS buffer (Invitrogen #14065) supplemented with 0.25% and 1% BSA for the donor and acceptor compartment, respectively. The compounds were added to the respective donor compartment in a concentration of 3 or 5 μM and were incubated for 2 hours at 37° C. The respective compound concentrations were determined by LC-MS analytics using an API 2000. Data analysis was performed as described by Sun and Pang 2008, Drug Metabolism and Disposition 36, 102-123.
In general terms: Caco-2 cells form a polarised layer with tight junctions and transporters.

Series [6] addresses MDR-1 (P-glycoprotein, Pgp) (Homo sapiens (Human), UniProt P08183). Put plainly: Inhibition of MDR1 ATPase (Pgp-Glo assay, SF9 membrane preparations). The format is biochemical. As to the method: For detection of MDR-1 (P-glycoprotein, Pgp) ATPase activity commercially available membrane preparations of MDR-1 overexpressing SF9 insect cells (SB-MDR1-Sf9-ATPase Membrane; 2.5 mg/500 μL; Solvo/tebu-bio #168SB-MDR1-Sf9-ATPase) were used. Since transport by MDR-1 is ATP-dependent, ATP consumption indicates transport activity of MDR-1. ATP consumption is detected as a decrease in luminescence from a second reaction with a recombinant firefly luciferase by using the Pgp-Glo™ Assay Kit (Promega # V3591).

The nature of series [7]: Stability in liver microsomes. The format is in vitro ADME, rat. Particulars: @37° C./1 mg/ml Liver Microsomes, 10 μM. The procedure: Metabolic stability in liver microsomes of different species (in the presence of NADPH, 1 mg/ml microsomal protein) was evaluated at 37° C. over time in triplicates at a test concentration of 10 μM. Loss of parent compound is measured by an HPLC-based UV detection method. For prediction of rat hepatic clearance half-lives (t1/2) were fitted from first-order rate constant k (min^−1) obtained from the slope of time versus In % remaining.

Series [8] deals with T1, Human Ghrelin Receptor (GHS-R 1A). Put plainly: Competitive binding, iodinated ghrelin tracer, intact LTK-cells overexpressing GHS-R 1A. The following applies: 60 min at 37° C.
From the text: as §1
For receptor competitive binding studies, iodinated ghrelin was used as a tracer at conditions of about 80% saturation binding. Different concentrations of the test compounds were analyzed for displacement of the tracer. For this purpose, the suspension of intact cells plus tracer mix and different test compound concentrations was layered on top of silicon/paraffin oil, incubated for 60 min at 37° C. and subjected to centrifugation. After freezing in liquid nitrogen the cell pellets were separated from the supernatant by cutting the tubes in the intermediate silicon/paraffin oil section and analyzed by γ-radiation analysis. The amount of unspecific binding was determined by including unlabeled ghrelin at 1 μM final concentration.
as §3, §4

Series [9] deals with Rat Ghrelin Receptor (GHS-R 1A) (Rattus norvegicus (Rat), UniProt O08725). Put plainly: Calcium release, antagonist. In kind it is cell-based. Particulars: 15 minutes preincubation, then ghrelin; read-out: Rat Ghrelin Receptor Antagonist Calcium Release IC50.
Sequence of Rat Ghrelin Receptor (GHS-R 1A) (O08725 whole entry): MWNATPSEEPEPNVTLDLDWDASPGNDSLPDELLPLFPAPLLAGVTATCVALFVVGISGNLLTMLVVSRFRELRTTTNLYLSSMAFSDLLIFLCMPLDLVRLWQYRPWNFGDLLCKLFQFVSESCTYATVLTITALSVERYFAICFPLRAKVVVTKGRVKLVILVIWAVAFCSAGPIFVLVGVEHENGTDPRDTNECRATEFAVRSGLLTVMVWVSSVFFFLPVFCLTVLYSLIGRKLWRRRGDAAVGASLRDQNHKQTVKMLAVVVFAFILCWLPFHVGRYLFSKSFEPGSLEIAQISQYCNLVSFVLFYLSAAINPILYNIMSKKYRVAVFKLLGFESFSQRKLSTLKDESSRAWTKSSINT
From the text: as §1, §2, §3
(§5) In the following table 1 results obtained for selected compounds of the invention are presented in comparison to compound 50 disclosed in WO07/020,013. Values given are either single measurements or mean values of up to nine independent experiments performed in duplicate (binding) or quadruplicate (functional assays) measurements.

For series [10], the target named is Mouse Ghrelin Receptor (GHS-R 1A) (Mus musculus (Mouse), UniProt Q99P50). As to the kind of experiment: Calcium release, antagonist. The format is cell-based. The following applies: 15 minutes preincubation, then ghrelin; read-out: Mouse Ghrelin Receptor Antagonist Calcium Release IC50.
Sequence of Mouse Ghrelin Receptor (GHS-R 1A) (Q99P50 whole entry): as the sequence (O08725 whole entry) above, with P30S, A249S counted along it
From the text: as §1, §2, §3, §5

[11] abbreviates: marker substrate testosteron, 30 minutes preincubation with NADPH, read-out: CYP3A4 Inhibition Testosteron Preincubation EC50.
Setting [12] is: marker substrate testosteron, direct inhibition, human liver microsomes, read-out: CYP3A4 Inhibition Testosteron EC50.

Where two headings read alike, the source gives them in different places.

T1 sequence (Q92847 whole entry): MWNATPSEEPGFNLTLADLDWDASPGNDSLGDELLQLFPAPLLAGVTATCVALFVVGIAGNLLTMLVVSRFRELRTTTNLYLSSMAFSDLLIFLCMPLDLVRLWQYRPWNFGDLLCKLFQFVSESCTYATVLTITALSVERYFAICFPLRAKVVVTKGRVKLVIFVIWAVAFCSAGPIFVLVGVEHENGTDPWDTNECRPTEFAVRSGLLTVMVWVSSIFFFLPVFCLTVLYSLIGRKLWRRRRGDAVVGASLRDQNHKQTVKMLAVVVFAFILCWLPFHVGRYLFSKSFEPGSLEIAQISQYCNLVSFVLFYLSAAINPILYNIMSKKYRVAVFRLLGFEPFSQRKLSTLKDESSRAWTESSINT
Sequence of MDR-1 (P-glycoprotein, Pgp) (P08183 whole entry): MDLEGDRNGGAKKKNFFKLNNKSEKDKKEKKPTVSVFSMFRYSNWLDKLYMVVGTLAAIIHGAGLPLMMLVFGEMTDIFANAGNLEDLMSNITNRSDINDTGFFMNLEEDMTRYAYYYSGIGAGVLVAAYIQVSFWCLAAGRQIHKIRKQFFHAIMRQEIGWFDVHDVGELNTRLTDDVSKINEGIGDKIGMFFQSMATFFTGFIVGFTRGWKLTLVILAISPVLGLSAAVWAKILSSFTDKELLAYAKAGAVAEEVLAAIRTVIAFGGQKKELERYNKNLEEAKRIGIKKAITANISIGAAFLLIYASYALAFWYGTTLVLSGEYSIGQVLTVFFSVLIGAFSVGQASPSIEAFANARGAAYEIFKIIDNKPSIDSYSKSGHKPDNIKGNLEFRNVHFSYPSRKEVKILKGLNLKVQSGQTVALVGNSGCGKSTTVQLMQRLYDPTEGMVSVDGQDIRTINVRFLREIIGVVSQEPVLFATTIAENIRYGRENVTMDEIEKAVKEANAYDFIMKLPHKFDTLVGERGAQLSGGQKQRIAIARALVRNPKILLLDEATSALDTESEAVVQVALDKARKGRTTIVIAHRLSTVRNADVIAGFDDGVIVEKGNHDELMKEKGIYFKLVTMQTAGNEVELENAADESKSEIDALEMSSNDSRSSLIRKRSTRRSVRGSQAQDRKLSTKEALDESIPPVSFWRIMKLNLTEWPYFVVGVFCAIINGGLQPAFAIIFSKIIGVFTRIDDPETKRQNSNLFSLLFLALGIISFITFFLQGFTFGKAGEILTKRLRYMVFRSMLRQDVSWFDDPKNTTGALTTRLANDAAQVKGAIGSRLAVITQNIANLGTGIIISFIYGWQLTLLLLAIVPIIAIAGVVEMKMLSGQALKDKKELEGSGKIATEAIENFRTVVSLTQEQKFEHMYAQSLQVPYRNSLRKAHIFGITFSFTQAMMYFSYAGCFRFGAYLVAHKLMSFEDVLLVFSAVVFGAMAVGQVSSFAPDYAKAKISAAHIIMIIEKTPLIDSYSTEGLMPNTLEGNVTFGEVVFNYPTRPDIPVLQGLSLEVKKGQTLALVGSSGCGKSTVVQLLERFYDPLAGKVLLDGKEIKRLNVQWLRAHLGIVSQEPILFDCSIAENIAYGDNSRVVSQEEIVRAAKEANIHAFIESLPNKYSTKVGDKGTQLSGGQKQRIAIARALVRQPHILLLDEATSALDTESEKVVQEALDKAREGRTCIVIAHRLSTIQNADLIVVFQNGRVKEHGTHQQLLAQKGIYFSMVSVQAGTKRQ
Sequence of hERG channel (Q12809 whole entry): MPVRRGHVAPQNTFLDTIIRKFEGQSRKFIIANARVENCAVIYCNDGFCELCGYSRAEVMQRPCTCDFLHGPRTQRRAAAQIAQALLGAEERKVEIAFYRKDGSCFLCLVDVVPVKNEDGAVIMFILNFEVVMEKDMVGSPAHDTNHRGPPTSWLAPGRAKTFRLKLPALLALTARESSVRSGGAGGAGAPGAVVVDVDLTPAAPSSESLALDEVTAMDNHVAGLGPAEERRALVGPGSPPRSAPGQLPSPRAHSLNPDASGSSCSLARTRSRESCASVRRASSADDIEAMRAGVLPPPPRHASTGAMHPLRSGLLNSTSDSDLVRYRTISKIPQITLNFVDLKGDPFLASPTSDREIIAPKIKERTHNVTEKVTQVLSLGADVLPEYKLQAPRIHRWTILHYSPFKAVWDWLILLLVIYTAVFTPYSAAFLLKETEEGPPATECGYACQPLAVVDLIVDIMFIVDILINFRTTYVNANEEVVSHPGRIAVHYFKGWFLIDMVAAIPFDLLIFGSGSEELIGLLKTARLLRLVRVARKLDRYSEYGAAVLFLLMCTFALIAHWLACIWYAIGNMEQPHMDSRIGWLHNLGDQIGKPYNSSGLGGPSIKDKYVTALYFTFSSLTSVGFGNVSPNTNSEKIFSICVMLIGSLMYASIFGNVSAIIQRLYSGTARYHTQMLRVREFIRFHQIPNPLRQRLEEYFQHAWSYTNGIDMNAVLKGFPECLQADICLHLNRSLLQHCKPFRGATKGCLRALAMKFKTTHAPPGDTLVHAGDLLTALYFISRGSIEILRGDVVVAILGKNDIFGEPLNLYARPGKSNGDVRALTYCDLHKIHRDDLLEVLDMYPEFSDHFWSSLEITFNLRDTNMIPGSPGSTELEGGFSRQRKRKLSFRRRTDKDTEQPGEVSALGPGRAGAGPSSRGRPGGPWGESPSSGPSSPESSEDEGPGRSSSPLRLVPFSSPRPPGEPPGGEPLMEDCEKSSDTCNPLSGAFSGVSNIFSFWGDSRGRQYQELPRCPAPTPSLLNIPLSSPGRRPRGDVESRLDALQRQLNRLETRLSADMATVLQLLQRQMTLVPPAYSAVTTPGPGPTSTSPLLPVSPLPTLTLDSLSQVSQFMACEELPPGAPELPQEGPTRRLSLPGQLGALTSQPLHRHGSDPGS
Sequence of CYP3A4 (P08684 whole entry): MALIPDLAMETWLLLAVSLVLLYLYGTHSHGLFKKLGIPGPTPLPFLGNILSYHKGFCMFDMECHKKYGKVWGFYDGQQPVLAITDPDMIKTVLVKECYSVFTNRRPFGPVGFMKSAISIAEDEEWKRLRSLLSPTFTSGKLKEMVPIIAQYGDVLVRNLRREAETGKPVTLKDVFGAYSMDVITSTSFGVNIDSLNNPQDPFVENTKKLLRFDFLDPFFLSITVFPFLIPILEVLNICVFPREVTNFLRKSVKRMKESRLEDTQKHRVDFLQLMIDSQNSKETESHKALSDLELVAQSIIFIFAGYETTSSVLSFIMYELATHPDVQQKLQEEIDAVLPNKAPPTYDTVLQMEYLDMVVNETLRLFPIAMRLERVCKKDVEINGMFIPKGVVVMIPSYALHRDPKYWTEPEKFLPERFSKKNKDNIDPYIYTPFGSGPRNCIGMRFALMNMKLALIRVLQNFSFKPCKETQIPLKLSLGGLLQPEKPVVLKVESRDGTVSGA

The term IC50 denotes the point on the concentration scale where inhibition reaches its midpoint. With `CCOC(=O)Cc1nnc([C@@H](Cc2c[nH]c3ccccc23)NC(=O)c2cccnc2)n1Cc1ccc(OC)cc1` [Cpd 1, [5-{(R)-2-(1H-Indol-3-yl)-1-[(pyridine-3-carbonyl)-amino]-ethyl}-4-(4-methoxy-benzyl)-4H-[1,2,4]triazol-3-yl]-acetic acid ethyl ester], the IC50 amounted to 3 nM in series [1] and 12.8 nM in [2].
Broadly, the EC50 is the concentration giving half of the maximal effect. Take `COc1ccc(Cn2c([C@@H](Cc3c[nH]c4ccccc34)NC(C)=O)nnc2[C@@H](Cc2c[nH]c3ccccc23)NC(=O)c2ccccn2)cc1.O=C(O)C(F)(F)F` [Cpd 3, Pyridine-2-carboxylic acid [(R)-1-[5-[(R)-1-acetylamino-2-(1H-indol-3-yl)-ethyl]-4-(4-methoxy-benzyl)-4H-[1,2,4]triazol-3-yl]-2-(1H-indol-3-yl)-ethyl]-amide]: the IC50 in series [1] is 2.5 nM; in [2] it was 2.2 nM; in [8], 0.6 nM; in [9] it was 29.9 nM; in series [10] it was 29.2 nM. Also, in [3], the “hERG Predictor EC50” value is on record as “no inhibition”. The concentration giving a half-maximal response (EC50) in [4] (marker substrate midazolam, 30 minutes preincubation with NADPH, read-out: CYP3A4 Inhibition Midazolam Preincubation EC50) came out at 980 nM; in series [4] (marker substrate midazolam, direct inhibition, human liver microsomes, read-out: CYP3A4 Inhibition Midazolam EC50), 3200 nM; in series [6], 38600 nM. The Papp A→B at 2 h in [5] was 0.37 ± 0.02 ×10⁻⁶ cm/s. The Papp B→A at 2 h in [5] turned out to be 17.2 ± 0.42 ×10⁻⁶ cm/s. In series [5], the efflux ratio at 2 h worked out at 51.9. In addition, in series [7], the “Stability in Liver Microsomes Rat % Remaining after 1 h Incubation” value amounted to 38.5%.
For the compound `COc1ccc(Cn2c([C@@H](Cc3ccccc3)NC(C)=O)nnc2[C@@H](Cc2c[nH]c3ccccc23)NC(=O)CO)cc1.O=C(O)C(F)(F)F` [Cpd 6, N-[(R)-1-[5-((R)-1-Acetylamino-2-phenyl-ethyl)-4-(4-methoxy-benzyl)-4H-[1,2,4]triazol-3-yl]-2-(1H-indol-3-yl)-ethyl]-2-hydroxy-acetamide], the IC50 in [1] stood at 2.1 nM; in [2], 7.8 nM; in series [8], 3 nM. In addition, the “hERG Predictor EC50” value in series [3] is recorded as “no inhibition”. Also, the EC50 in [4] (setting [11]) came to 1400 nM; in series [4] (setting [12]), 34300 nM. For the same compound, the “Inhibition of MDR1 ATPase EC50” value in series [6] is recorded as “no inhibition”. The “Stability in Liver Microsomes Rat % Remaining after 1 h Incubation” value in [7] is on record as 27.1%.
With `COc1ccc(Cn2c([C@@H](Cc3ccccc3)NC(C)=O)nnc2[C@@H](Cc2c[nH]c3ccccc23)NC(=O)[C@@H]2CNCCO2)cc1.O=C(O)C(F)(F)F` [Cpd 7, (S)-Morpholine-2-carboxylic acid [(R)-1-[5-((R)-1-acetylamino-2-phenyl-ethyl)-4-(4-methoxy-benzyl)-4H-[1,2,4]triazol-3-yl]-2-(1H-indol-3-yl)-ethyl]-amide], the values for the IC50 in [1], in series [2] and in [8] were 3.8 nM, 9.5 nM and 3.4 nM, respectively. Further, the “hERG Predictor EC50” value in series [3] is on record as “no inhibition”. Also, the EC50 in series [4] (setting [11]) worked out at 1100 nM; in series [4] (setting [12]), 27000 nM; in series [6], 1080 nM. In addition, the “Stability in Liver Microsomes Rat % Remaining after 1 h Incubation” value in series [7] amounted to 82.7%.
Turning to `COc1ccc(Cn2c([C@@H](Cc3c[nH]c4ccccc34)NC(C)=O)nnc2[C@@H](Cc2c[nH]c3ccccc23)NC(=O)C(C)(C)N)cc1.O=C(O)C(F)(F)F` [Cpd 8, N-[(R)-1-[5-[(R)-1-Acetylamino-2-(1H-indol-3-yl)-ethyl]-4-(4-methoxy-benzyl)-4H-[1,2,4]triazol-3-yl]-2-(1H-indol-3-yl)-ethyl]-2-amino-2-methyl-propionamide], the IC50 in [1] was found to be 19.1 nM; in series [2], 22.4 nM; in [8], 1.4 nM; in [9], 1050 nM; in series [10], 363 nM. The “hERG Predictor EC50” value in series [3] is recorded as “no inhibition”. The EC50 in [4] (setting [11]) was 900 nM; in [4] (setting [12]) it was 31200 nM; in series [6] it was 196000 nM. The Papp A→B at 2 h in [5] worked out at 0.08 ± 0.08 ×10⁻⁶ cm/s. Besides, the Papp B→A at 2 h in [5] came out at 0.74 ± 0.03 ×10⁻⁶ cm/s. Moreover, in series [5], the efflux ratio at 2 h stood at 9.25. Further, the “Stability in Liver Microsomes Rat % Remaining after 1 h Incubation” value in series [7] turned out to be 64.3%.
Turning to `COc1ccc(Cn2c([C@@H](Cc3c[nH]c4ccccc34)NC=O)nnc2[C@@H](Cc2c[nH]c3ccccc23)NC(=O)C(C)(C)N)cc1.O=C(O)C(F)(F)F` [Cpd 9, 2-Amino-N-[(R)-1-[5-[(R)-1-formylamino-2-(1H-indol-3-yl)-ethyl]-4-(4-methoxy-benzyl)-4H-[1,2,4]triazol-3-yl]-2-(1H-indol-3-yl)-ethyl]-2-methyl-propionamide], the IC50 in series [1] turned out to be 32.6 nM; in [2], 58.6 nM; in series [8], 3.2 nM. Further, the “hERG Predictor EC50” value in [3] is “no full dose”. Further, the EC50 in series [4] (setting [11]) is 1500 nM; in series [4] (setting [12]), 10000 to 30000 nM; in [6], 836 nM. In addition, in series [7], the “Stability in Liver Microsomes Rat % Remaining after 1 h Incubation” value is 54.8%.
Regarding `COc1ccc(Cn2c(CCc3c[nH]c4ccccc34)nnc2[C@@H](Cc2ccc3ccccc3c2)NC(=O)OC(C)(C)C)cc1.O=C(O)C(F)(F)F` [Cpd 15, {(R)-1-[5-[2-(1H-Indol-3-yl)-ethyl]-4-(4-methoxy-benzyl)-4H-[1,2,4]triazol-3-yl]-2-naphthalen-2-yl-ethyl}-carbamic acid tert-butyl ester], the IC50 was 39.9 nM in series [1], 24.9 nM in series [2] and 16.5 nM in series [8]. The compound also displayed an EC50 in series [6] of 16300 nM. Besides, the “Stability in Liver Microsomes Rat % Remaining after 1 h Incubation” value in series [7] turned out to be 37.8%.

The values are drawn from patent US8546435B2, “Triazole derivatives with improved receptor activity and bioavailability properties as ghrelin antagonists of growth hormone secretagogue receptors” (AEterna Zentaris GmbH, priority 2010, dated 2013).
